Source: a melting point compilation (Tetko et al.; mined from patent text by program, amines drawn as free bases though some values may be those of a salt)

Compared with `NS(=O)(=O)c1ccc(NC(=O)Nc2c(F)c(F)c(F)c(F)c2F)cc1`, `COc1cc(Cc2cc3cc(Cl)ccc3n2S(=O)(=O)c2ccc(C(C)C)cc2)ccc1C(=O)O` is lower in melting point: 251 to 253 °C for the first, 67 °C for the second.

First: CCOC(=O)NC(=S)Nc1ccc(Br)cn1
Second: COC(=O)N[C@@H]1CCc2ccc(Br)cc2C1=O
The melting point of the first is higher: 159 to 161 °C for the first, 111 to 112 °C for the second.

First: CCCc1c(O)c(C(C)=O)cc2ccc(C(=O)OC)nc12
Second: CCOC(=O)C1=C(C)NC(C)=C(C(=O)OC)C1c1cccc(C(F)(F)F)c1 (single isomer, unassigned; (-))
The melting point of the first is lower: 110 to 111 °C for the first, 134 to 135 °C for the second.

Compared with `COc1ccc(Nc2ncc3cc4ccccc4n3n2)cc1`, `CCOc1c(C(=O)O)oc2c3cc(OC)ccc3n(-c3ccccc3)c12` is lower in melting point: 197 to 200 °C for the first, 166 to 167 °C for the second.

First: C=Cc1ccc(N2C[C@H](CNC(C)=O)OC2=O)cc1F
Second: C=CCC(C(=O)NC)c1ccc(F)cc1 (centres undefined)
The melting point of the first is higher: 165 to 166 °C for the first, 104 to 105 °C for the second.

Compared with `CNc1scc(C)c1C(=O)c1ccccc1Cl`, `CN(C)Cc1nc(C(=O)O)nn1-c1ccc(Cl)cc1C(=O)c1ccccc1` is higher in melting point: 132 to 134 °C for the first, 160 to 165 °C for the second.

First: COc1cc(-n2nc(C#N)cc2-c2ccc(S(C)(=O)=O)cc2)ccc1Br
Second: COC(=O)CCn1cc(-c2cccnc2)c2cc([N+](=O)[O-])ccc21
The melting point of the first is higher: 212 to 214 °C for the first, 123 to 125 °C for the second.

First: O=c1nc(-c2ccc3c(c2)OCO3)c2cc3c(cc2[nH]1)OCO3
Second: O=C(NCc1cccc(F)c1)NNC(=O)c1ccc2c(c1)CCO2
The melting point of the first is higher: > 300 °C for the first, 200 to 201 °C for the second.

Compared with `CCOC(=O)C(CC(C)C)NC(=O)N1CCc2cc(S(=O)(=O)N3CCN(c4cccc(Cl)c4)CC3)ccc21` (centres undefined), `N#CN1CCN(c2nn(S(=O)(=O)c3ccccc3)c3ccccc23)CC1` is higher in melting point: 76 to 77 °C for the first, 178 to 180 °C for the second.

Compared with `CN(C1CCN(Cc2ccsc2)CC1)S(=O)(=O)c1ccc(Nc2nccc(Nc3ccc(F)cc3)n2)cc1`, `CCOC(=O)C1CCN(c2nnc(-c3ccc(C)cc3)c(-c3ccc(C)cc3)n2)CC1` is lower in melting point: 173 to 174 °C for the first, 102 to 104 °C for the second.

First: CN1C(=O)c2ccccc2C2(CC(=O)NC2=O)C1=O (centres undefined)
Second: CN1C(=O)C(C)(C)N=C(c2ccccc2F)c2cc(N)cc(Cl)c21
The melting point of the first is higher: 224 to 225 °C for the first, 169 to 172 °C for the second.

First: CCOCC(=O)C(=CN(CC)CC)c1cccc(C(F)(F)F)c1
Second: CN(C)CCOC(=O)c1cccc(Nc2cc(C(C)(C)C)c(O)c(C(C)(C)C)c2)c1
The melting point of the first is higher: 131 to 133 °C for the first, 119 to 120 °C for the second.

First: CCC=CCn1c(=O)sc2c(=O)n(N)c(N)nc21
Second: Cn1cc(-c2cnc3[nH]c(=O)n(CC4CCOCC4)c3n2)cn1
The melting point of the first is lower: 137 to 139 °C for the first, 224 to 226 °C for the second.

First: C=C(C)C(=O)NCCCCCCCCCCCC(=O)O
Second: CCCN(CCC)C(=O)n1cnc(S(=O)CCC)n1 (centres undefined)
The melting point of the first is higher: 70.8 to 72.4 °C for the first, 50 to 52 °C for the second.

Compared with `CC1(C)C=C(C(=NC2CC2)NC#N)c2cc([N+](=O)[O-])ccc2O1`, `CC(=O)c1ccc(S(=O)(=O)N2CCCC(CO)C2)cc1` (centres undefined) is lower in melting point: 206 to 207 °C for the first, 104 to 106 °C for the second.

First: C(#Cc1cccs1)C1=CCN(Cc2c[nH]c3ncccc23)CC1
Second: COc1cc2ncnc(N3CCN(C(=O)NCc4ccsc4)CC3)c2cc1OC
The melting point of the first is higher: 191 to 193 °C for the first, 178 to 179 °C for the second.

First: CCc1cccc(CNC[C@@H](O)[C@H](Cc2cc(F)cc(F)c2)NC(=O)C2CCC(CS(C)(=O)=O)CC2)c1 (some centres undefined)
Second: COc1cccc2cc(C(=O)N[C@@H](CC(N)=O)C(=O)N[C@@H](Cc3ccccc3)[C@H](O)C(=O)N3C[C@@H](Cl)C[C@H]3C(=O)NC(C)(C)C)oc12
The melting point of the first is lower: 45 to 50 °C for the first, 125 to 136 °C for the second.

First: Cc1noc(NS(=O)(=O)c2ccccc2-c2ccc(-c3ncco3)cc2Cn2ccnc2C(C)C)c1C
Second: COc1cc(COc2nn(Cc3ccccc3)cc2CC(=O)O)ccc1OCc1nc(-c2ccccc2)oc1C
The melting point of the first is higher: 184 to 188 °C for the first, 99 to 100 °C for the second.

Compared with `CC(C)OC(=O)C(C(N)=O)=C1SCS1`, `CCOC(=O)CN1C(=O)C(NC(=O)c2ccc3ccccc3c2)C(c2ccc(OC)cc2)Sc2ccccc21` (centres undefined) is higher in melting point: 128 to 129 °C for the first, 183 to 186 °C for the second.

First: Cc1ccc(CN2C(=NCCCn3ccnc3)c3cccc4cccc2c34)cc1
Second: O=C1OC2(CCN(CCOC(c3ccccc3)c3ccccc3)CC2)c2ccccc21
The melting point of the first is lower: 94 to 95 °C for the first, 99 to 100 °C for the second.

Compared with `Nc1nc(SCc2ccccc2)c2ncn(C3CC(F)C(CO)O3)c2n1` (centres undefined), `CSc1ncnc(SC)c1NC(=O)CN1CCN(CCSc2nc3ccccc3o2)CC1` is higher in melting point: 150 to 151 °C for the first, 171 to 172 °C for the second.

First: O=C(O)/C=C/c1cnc(-c2ccc(O)c(C34CC5CC(CC(C5)C3)C4)c2)cn1
Second: COC(=O)[C@@H]1C[C@H](OC(=O)c2cc3ccccc3o2)C(=O)[C@H]2[C@@]1(C)CC[C@H]1C(=O)O[C@H](c3ccoc3)C[C@]21C
The melting point of the first is lower: 70 to 71 °C for the first, 226 to 227 °C for the second.

Going from `CC(=O)Nc1cccc(/C=C/C(=O)N2CC(CCl)c3c2cc(N)c2ccccc32)c1` (centres undefined) to `CNc1nc(Nc2cccc(OCCNC(=O)OC(C)(C)C)c2)ncc1[N+](=O)[O-]`, the melting point falls from > 250 °C to 193 °C.

Compared with `O=Cc1csc(Nc2ccc(F)cc2)n1`, `Cc1cn(-c2cccc(O)c2)cn1` is higher in melting point: 152 to 155 °C for the first, 203 to 205 °C for the second.

`CSc1cc(C)nc(SC)c1NC(=O)CCCCSc1nc2c(C)c(Cl)cc(C(C)C)c2o1` showed a melting point of 155 to 156 °C.
